Assay results taken from patent US11795151B2, “Benzotriazole compound” (MIYOSHI OIL & FAT CO., LTD., priority 2017, dated 2023).

Legend:
Assay type in all cases: physicochemical
[1] = Maximum solubility in various monomers; settings: acrylonitrile as a vinyl-based monomer; same evaluation method
Text: With the same evaluation method, 2 wt % of Compound 1, 5 wt % of Compound 2, 5 wt % of Compound 3, and 1 wt % of Compound 4 were each soluble in acrylonitrile as a vinyl-based monomer as well.

[2] = Maximum solubility in various monomers; settings: room temperature (20 to 30° C.), 4 hours
[3] = Evaluation of UV absorption performance (1): absorbance spectra in chloroform; settings: 100 μM; for Absorbance at absorption peak in wavelength region of 350 to 390 nm / Absorbance at peak end / Absorption wavelength at peak end / Molar extinction coefficient at peak (maximum molar extinction coefficient: εmax) / Wave length at absorption peak in wavelength region of 350 to 390 nm (maximum absorption wavelength: λmax): 10-mm quartz cell; for Absolute value of slope of absorption peak on long wavelength side in wavelength region of 350 to 390 nm: Equation 2
Method: Compounds 1 to 12 were diluted with 100 μM of chloroform, placed in a 10-mm quartz cell, and the absorbance spectra were measured using an ultraviolet-visible spectrophotometer (V-550, manufactured by JASCO Corporation)(FIGS. 1 to 12).
The absorption peak (maximum absorption wavelength: λmax) and absorbance in the wavelength range of 350 to 390 nm were read from the absorption spectra of Compounds 1 to 12, and the molar extinction coefficient of the peak (maximum molar extinction coefficient: εmax) was obtained by the following equation (able 1). Molar extinction coefficient:εmax(L/(mol·cm))=A:Absorbance/[c:Mol concentration(mol/L)×1:Cell optical length(cm)] [Equation 1]
In addition, from the absorption spectra of Compounds 1 to 12, assuming that an intersection of a long-wavelength side absorption spectrum in the absorption peak at 350 to 390 nm and a baseline (a line where the slope of the absorption spectrum at 380 to 500 nm is zero) is set as a […] (for example: FIG. 1), the absolute value of the slope of the absorption peak on the long-wavelength side in the wavelength region at 350 to 390 nm was obtained by the following equation: |Slope of absorption peak on long wavelength side in wavelength region of 350 to 390 nm|=|(Absorbance at peak end−Absorbance at absorption peak in wavelength region of 350 to 390 nm)/(Absorption wavelength at peak end−Wave length at absorption peak in wavelength region of 350 to 390 nm)| [Equation 2]

[4] = Evaluation of 5% weight reduction temperature (1) (TG/DTA); settings: temperature increasing rate 10° C./min, 25° C. to 550° C.
Method: Compounds 1 to 8 and 10 to 12 were measured using a differential thermogravimetric simultaneous measurement device (TG/DTA6200, manufactured by SII Corporation) at a temperature increasing rate of 10° C./min and within a measurement range of 25° C. to 550° C., and the temperature at which 5 wt % reduction as the weight change (TG) took place was read (Table 6).

[5] = Evaluation of UV absorption performance (2): absorbance spectra in chloroform; settings: 100 μM
Method: Compounds 11 to 28 were diluted with 100 μM of chloroform and placed in a 10-mm quartz cell, and the absorbance spectra were measured using an ultraviolet-visible spectrophotometer (V-550, manufactured by JASCO Corporation)(FIGS. 11,12,14 to 29).
The absorption peak (maximum absorption wavelength: max) and absorbance in the wavelength range of 350 to 390 nm were read from the absorption spectra of Compounds 11 to 28, and a molar extinction coefficient (maximum molar extinction coefficient: εmax) of the peak was obtained by the following formula (Table 7): Molar extinction coefficient:εmax(L/(mol·cm))=A:Absorbance/[c:Mol concentration(mol/L)×1:Cell optical length(cm)] [Equation 3]
In addition, from the absorption spectra of Compounds 11 to 28, assuming that an intersection of a long-wavelength side absorption spectrum in the absorption peak at 350 to 390 nm and a baseline (a line where the slope of the absorption spectrum at […] is zero) is set as a peak end (for example: FIG. 1), the absolute value of the slope of the absorption peak on the long-wavelength side in the wavelength region at 350 to 390 nm was obtained by the following equation (Table 8): |Slope of absorption peak on long wavelength side in wavelength region of 350 to 390n|=|(Absorbance at peak end−Absorbance at absorption peak in wavelength region of 350 to 390 nm)/(Absorption wavelength at peak end−Wave length at absorption peak in wavelength region of 350 to 390 nm)| [Equation 4]

Row | SMILES | Concentration soluble in acrylonitrile [1] [wt %] | Maximum solubility ([2]; Dimethylacrylamide) [wt %] | Maximum solubility ([2]; Hexadiene) [wt %] | Maximum solubility ([2]; Methyl (meth)acrylate) [wt %] | Maximum solubility ([2]; Styrene) [wt %] | Maximum solubility ([2]; Vinyl acetate) [wt %] | Absorbance at absorption peak in wavelength region of 350 to 390 nm [3] | Absorbance at peak end [3] | Absorption wavelength at peak end [3] [nm] | Molar extinction coefficient at peak (maximum molar extinction coefficient: εmax) [3] [L/mol/cm] | Wave length at absorption peak in wavelength region of 350 to 390 nm (maximum absorption wavelength: λmax) [3] [nm] | 5% weight reduction temperature [4] [°C] | Absolute value of slope of absorption peak on long wavelength side in wavelength region of 350 to 390 nm [3] | Absorbance at absoprtion peak in wavelength region of 350 to 390 nm ([5]; 10-mm quartz cell) | Absorbance at peak end ([5]; 10-mm quartz cell) | Absorption wavelength at peak end ([5]; 10-mm quartz cell) [nm] | Molar extinction coefficient at peak (maximum molar extinction coefficient: εmax) ([5]; 10-mm quartz cell) [L/mol/cm] | Wave length at absorption peak in wavelength region of 350 to 390 nm (maximum absorption wavelength: λmax) ([5]; 10-mm quartz cell) [nm] | Absolute value of slope of absorption peak on long wavelength side in wavelength region of 350 to 390 nm ([5]; Equation 4)
1 | C=CC(=O)OCCCCCCSc1ccc2nn(-c3cc(C)cc(C(C)(C)C)c3O)nc2c1 [Compound 1] | 2 | 20 | 10 | 20 | 25 | 15 | 2.26 | 0.00766 | 422 | 22600 | 368 |  |  |  |  |  |  |  | 
2 | C=C(C)C(=O)OCCSc1ccc2nn(-c3cc(C)cc(C(C)(C)C)c3O)nc2c1 [Compound 2] | 5 | 15 | 3 | 20 | 25 | 15 | 2.25 | 0.00727 | 421 | 21400 | 365 | 285 |  |  |  |  |  |  | 
3 | C=C(C)C(=O)OCCCCCCSc1ccc2nn(-c3cc(C)cc(C(C)(C)C)c3O)nc2c1 [Compound 4] | 1 |  |  | 12 | 25 |  | 2.24 | 0.00762 | 420 | 22400 | 368 |  |  |  |  |  |  |  | 
4 | C=C(C)C(=O)Oc1ccc(Sc2ccc3nn(-c4cc(C)cc(C(C)(C)C)c4O)nc3c2)cc1 [Compound 5] |  | 15 | 5 | 15 | 25 | 13 | 2.29 | 0.01022 | 422 | 21800 | 367 |  |  |  |  |  |  |  | 
5 | C=C(C)C(=O)OCCCCCCOc1ccc(Sc2ccc3nn(-c4cc(C)cc(C(C)(C)C)c4O)nc3c2)cc1 [Compound 6] |  | 15 | 10 | 20 | 25 | 15 | 2.27 | 0.01184 | 424 | 21600 | 369 |  |  |  |  |  |  |  | 
6 | C/C=C/C(=O)OCCCCCCSc1ccc2nn(-c3cc(C)cc(C(C)(C)C)c3O)nc2c1 [Compound 7] |  |  |  |  |  |  | 2.19 | 0.00728 | 422 | 21900 | 368 | 304 |  |  |  |  |  |  | 
7 | CCCCCCCCCCCCC/C=C/C(=O)OCCCCCCSc1ccc2nn(-c3cc(C)cc(C(C)(C)C)c3O)nc2c1 [Compound 9] |  |  |  |  |  |  | 2.14 | 0.00702 | 422 | 21100 | 368 |  |  |  |  |  |  |  | 
8 | C=CCSc1ccc2nn(-c3cc(C)cc(C(C)(C)C)c3O)nc2c1 [Compound 10, reference compound] |  | ≤9 | 1 | ≤10 | ≤20 | ≤10 | 1.76 | 0.00722 | 430 | 17600 | 375 | 252 | 0.032 |  |  |  |  |  | 
9 | C=C(C)C(=O)OCCc1ccc(O)c(-n2nc3ccccc3n2)c1 [Compound 11, reference compound] |  | 10 | 2 | 11 | 21 | 11 | 1.83 | 0.0069 | 388 | 18300 | 341 | 249 | 0.038 | 1.83 | 0.0069 | 388 | 18300 | 341 | 0.038
